In article PMC12536539, “Detumescence Analgesic Plaster mitigates knee osteoarthritis via active ingredients targeting mitochondrial complex 1/AMPK/MYL3-regulated cartilage homeostasis” (Chinese Medicine, 2025):

Target: T1, NDUFA6
T1 construct: SPR protein; species is a guess, rat possible
Experiment: SPR, Biacore 8K, […] Langmuir kinetic fit
Type: binding

Work on `O=C(/C=C/c1ccc(O)c(O)c1)O[C@@H]1C[C@](OC(=O)/C=C/c2ccc(O)c(O)c2)(C(=O)O)C[C@@H](O)[C@H]1O` [1,5-dicaffeoylquinic acid] yielded a Kd of 735 nM.
